What was measured:
Danio rerio embryo [1] = details: exposure time: 4 dpf
Description: (§1)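 Zebrafish embryos (UFZ-OBI strain) were exposed from 2 hpf for 48 h (2 dpf) or 96 h (4 dpf) at 28 °C; spontaneous tail coiling was scored at 25 hpf. Morphological features from automated image analysis (FishInspector), heart rate and locomotor response were fitted with drc models. Quantal endpoints were dichotomised at 2.5 SD from controls and fitted with a log-logistic model; heart rate, pigmentation and STC were normalised to the replicate control mean. Betamethasone was tested as betamethasone dipropionate, diflorasone as diflorasone diacetate.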

Danio rerio embryo [2] = details: exposure time: 2 dpf
Description: as §1

Danio rerio embryo [3] = tested on: Danio rerio embryo
Description: as §1

Danio rerio embryo [4] = assay: EC50 Eye size_Decrease; details: exposure time: 2 dpf
Description: as §1

Danio rerio embryo [5] = assay: EC50 Curvature_Increase
Description: as §1

Danio rerio embryo [6] = assay: EC50 Head size_Decrease; details: exposure time: 2 dpf
Description: as §1

Danio rerio embryo [7] = assay: EC50 Body length_Decrease; details: exposure time: 2 dpf
Description: as §1

Danio rerio embryo [8] = assay: EC50 Bladder size_Decrease; details: exposure time: 4 dpf
Description: as §1

Danio rerio embryo [9] = assay: EC50 Pericard size_Increase
Description: as §1

Danio rerio embryo [10] = assay: EC50 Head trunk angle_Decrease; details: exposure time: 2 dpf
Description: as §1

Danio rerio embryo [11] = assay: EC10 Lack of SB; higher = less potent; details: exposure time: 4 dpf
Description: as §1

Danio rerio embryo [12] = assay: EC20 Lack of SB; higher = less potent; details: exposure time: 4 dpf
Description: as §1

Danio rerio embryo [13] = assay: EC20 Any effect; higher = less potent
Description: as §1

Danio rerio embryo [14] = assay: EC10 Any effect; higher = less potent
Description: as §1

Danio rerio embryo [15] = assay: EC20 Eye size_Decrease; higher = less potent; details: exposure time: 2 dpf
Description: as §1

Danio rerio embryo [16] = assay: EC10 Eye size_Decrease; higher = less potent; details: exposure time: 2 dpf
Description: as §1

Danio rerio embryo [17] = assay: EC10 Curvature_Increase; higher = less potent
Description: as §1

Danio rerio embryo [18] = assay: EC20 Head size_Decrease; higher = less potent; details: exposure time: 2 dpf
Description: as §1

Danio rerio embryo [19] = assay: EC20 Curvature_Increase; higher = less potent
Description: as §1

Danio rerio embryo [20] = assay: EC10 Head size_Decrease; higher = less potent; details: exposure time: 2 dpf
Description: as §1

Danio rerio embryo [21] = assay: EC20 Body length_Decrease; higher = less potent; details: exposure time: 2 dpf
Description: as §1

Danio rerio embryo [22] = assay: EC10 Body length_Decrease; higher = less potent; details: exposure time: 2 dpf
Description: as §1

Danio rerio embryo [23] = assay: EC10 Pigmentation decrease; higher = less potent; details: exposure time: 2 dpf
Description: as §1

Danio rerio embryo [24] = assay: EC10 Bladder size_Decrease; higher = less potent; details: exposure time: 4 dpf
Description: as §1

Danio rerio embryo [25] = assay: EC20 Pigmentation decrease; higher = less potent; details: exposure time: 2 dpf
Description: as §1

Danio rerio embryo [26] = assay: EC20 Bladder size_Decrease; higher = less potent; details: exposure time: 4 dpf
Description: as §1

Danio rerio embryo [27] = assay: EC20 Pericard size_Increase; higher = less potent
Description: as §1

Danio rerio embryo [28] = assay: EC10 Pericard size_Increase; higher = less potent
Description: as §1

Danio rerio embryo [29] = assay: EC10 Head trunk angle_Decrease; higher = less potent; details: exposure time: 2 dpf
Description: as §1

Danio rerio embryo [30] = assay: EC20 Head trunk angle_Decrease; higher = less potent; details: exposure time: 2 dpf
Description: as §1

Danio rerio embryo [31] = assay: spontaneous tail coiling frequency (coils/min/embryo); higher = more spontaneous movement; details: 25 hpf
Description: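 Spontaneous tail coilings of zebrafish embryos exposed from 2 hpf were recorded at 24-25 hpf in 1-min videos and detected by a KNIME workflow from grey-value variance. Betamethasone was tested as the dipropionate, diflorasone as the diacetate.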

COC(=O)Nc1nc2ccccc2[nH]1 [Carbendazim]
Details	EC10 Bladder size Decrease [nM]	EC10 Body length Decrease [nM]	EC10 Eye size Decrease [nM]	EC10 Head size Decrease [nM]	EC10 Head trunk angle Decrease [nM]	EC10 Lack of SB [nM]	EC10 Pigmentation decrease [nM]	EC20 Bladder size Decrease [nM]	EC20 Body length Decrease [nM]	EC20 Eye size Decrease [nM]	EC20 Head size Decrease [nM]	EC20 Head trunk angle Decrease [nM]	EC20 Lack of SB [nM]	EC20 Pigmentation decrease [nM]	EC50 Bladder size Decrease [nM]	EC50 Body length Decrease [nM]	EC50 Eye size Decrease [nM]	EC50 Head size Decrease [nM]	EC50 Head trunk angle Decrease [nM]	EC50 Lack of SB [nM]	EC50 Pigmentation decrease [nM]
Danio rerio embryo [1]	–	–	–	–	–	–	–	–	–	–	–	–	–	–	–	–	–	–	–	2700	–
Danio rerio embryo [2]	–	–	–	–	–	–	–	–	–	–	–	–	–	–	–	–	–	–	–	–	3340
Danio rerio embryo [4]	–	–	–	–	–	–	–	–	–	–	–	–	–	–	–	–	3300	–	–	–	–
Danio rerio embryo [6]	–	–	–	–	–	–	–	–	–	–	–	–	–	–	–	–	–	3510	–	–	–
Danio rerio embryo [7]	–	–	–	–	–	–	–	–	–	–	–	–	–	–	–	3040	–	–	–	–	–
Danio rerio embryo [8]	–	–	–	–	–	–	–	–	–	–	–	–	–	–	2250	–	–	–	–	–	–
Danio rerio embryo [10]	–	–	–	–	–	–	–	–	–	–	–	–	–	–	–	–	–	–	3470	–	–
Danio rerio embryo [11]	–	–	–	–	–	2300	–	–	–	–	–	–	–	–	–	–	–	–	–	–	–
Danio rerio embryo [12]	–	–	–	–	–	–	–	–	–	–	–	–	2440	–	–	–	–	–	–	–	–
Danio rerio embryo [15]	–	–	–	–	–	–	–	–	–	2900	–	–	–	–	–	–	–	–	–	–	–
Danio rerio embryo [16]	–	–	2690	–	–	–	–	–	–	–	–	–	–	–	–	–	–	–	–	–	–
Danio rerio embryo [18]	–	–	–	–	–	–	–	–	–	–	3050	–	–	–	–	–	–	–	–	–	–
Danio rerio embryo [20]	–	–	–	2810	–	–	–	–	–	–	–	–	–	–	–	–	–	–	–	–	–
Danio rerio embryo [21]	–	–	–	–	–	–	–	–	2950	–	–	–	–	–	–	–	–	–	–	–	–
Danio rerio embryo [22]	–	2900	–	–	–	–	–	–	–	–	–	–	–	–	–	–	–	–	–	–	–
Danio rerio embryo [23]	–	–	–	–	–	–	2530	–	–	–	–	–	–	–	–	–	–	–	–	–	–
Danio rerio embryo [24]	977	–	–	–	–	–	–	–	–	–	–	–	–	–	–	–	–	–	–	–	–
Danio rerio embryo [25]	–	–	–	–	–	–	–	–	–	–	–	–	–	2800	–	–	–	–	–	–	–
Danio rerio embryo [26]	–	–	–	–	–	–	–	1330	–	–	–	–	–	–	–	–	–	–	–	–	–
Danio rerio embryo [29]	–	–	–	–	2730	–	–	–	–	–	–	–	–	–	–	–	–	–	–	–	–
Danio rerio embryo [30]	–	–	–	–	–	–	–	–	–	–	–	2980	–	–	–	–	–	–	–	–	–

Details	EC10 Any effect [nM]	EC10 Curvature Increase [nM]	EC10 Pericard size Increase [nM]	EC20 Any effect [nM]	EC20 Curvature Increase [nM]	EC20 Pericard size Increase [nM]	EC50 Any effect [nM]	EC50 Curvature Increase [nM]	EC50 Pericard size Increase [nM]	spontaneous tail coiling frequency
Danio rerio embryo [3], exposure time: 2 dpf	–	–	–	–	–	–	3050	–	–	–
Danio rerio embryo [3], exposure time: 4 dpf	–	–	–	–	–	–	3090	–	–	–
Danio rerio embryo [5], exposure time: 2 dpf	–	–	–	–	–	–	–	3270	–	–
Danio rerio embryo [5], exposure time: 4 dpf	–	–	–	–	–	–	–	3260	–	–
Danio rerio embryo [9], exposure time: 2 dpf	–	–	–	–	–	–	–	–	3430	–
Danio rerio embryo [9], exposure time: 4 dpf	–	–	–	–	–	–	–	–	2990	–
Danio rerio embryo [13], exposure time: 2 dpf	–	–	–	2980	–	–	–	–	–	–
Danio rerio embryo [13], exposure time: 4 dpf	–	–	–	2850	–	–	–	–	–	–
Danio rerio embryo [14], exposure time: 2 dpf	2930	–	–	–	–	–	–	–	–	–
Danio rerio embryo [14], exposure time: 4 dpf	2720	–	–	–	–	–	–	–	–	–
Danio rerio embryo [17], exposure time: 2 dpf	–	2710	–	–	–	–	–	–	–	–
Danio rerio embryo [17], exposure time: 4 dpf	–	2680	–	–	–	–	–	–	–	–
Danio rerio embryo [19], exposure time: 2 dpf	–	–	–	–	2900	–	–	–	–	–
Danio rerio embryo [19], exposure time: 4 dpf	–	–	–	–	2880	–	–	–	–	–
Danio rerio embryo [27], exposure time: 2 dpf	–	–	–	–	–	3110	–	–	–	–
Danio rerio embryo [27], exposure time: 4 dpf	–	–	–	–	–	2760	–	–	–	–
Danio rerio embryo [28], exposure time: 2 dpf	–	–	2940	–	–	–	–	–	–	–
Danio rerio embryo [28], exposure time: 4 dpf	–	–	2630	–	–	–	–	–	–	–
Danio rerio embryo [31], 0.23 µM	–	–	–	–	–	–	–	–	–	2.14
Danio rerio embryo [31], 0.344 µM	–	–	–	–	–	–	–	–	–	1.91
Danio rerio embryo [31], 0.517 µM	–	–	–	–	–	–	–	–	–	2.25
Danio rerio embryo [31], 0.775 µM	–	–	–	–	–	–	–	–	–	2.51
Danio rerio embryo [31], 1.16 µM	–	–	–	–	–	–	–	–	–	1.06
Danio rerio embryo [31], 1.162 µM	–	–	–	–	–	–	–	–	–	2.68
Danio rerio embryo [31], 1.74 µM	–	–	–	–	–	–	–	–	–	1.81
Danio rerio embryo [31], 1.743 µM	–	–	–	–	–	–	–	–	–	1.56
Danio rerio embryo [31], 2.615 µM	–	–	–	–	–	–	–	–	–	2.98
Danio rerio embryo [31], 2.62 µM	–	–	–	–	–	–	–	–	–	2.11
Danio rerio embryo [31], 3.138 µM	–	–	–	–	–	–	–	–	–	4.11
Danio rerio embryo [31], 3.661 µM	–	–	–	–	–	–	–	–	–	3.75
